Assay results: patent US12365696B2, “Small-molecule focal adhesion kinase (FAK) inhibitors” (DANA-FARBER CANCER INSTITUTE, INC., priority 2019, dated 2025)
Like-named read-outs stand apart in the source and are kept apart here.

Experiments:
Assay in all cases: KINOMEscan
Assay type in all cases: binding
ABL1-phosphorylated = ABL1-phosphorylated (Homo sapiens (Human), UniProt P00519); conditions: 10000 nM, read-out: Percent Control
ALK(C1156Y) = ALK(C1156Y) (Homo sapiens (Human), UniProt Q9UM73, C1156Y); conditions: 10000 nM, read-out: Percent Control
AURKA = AURKA (Homo sapiens (Human), UniProt O14965); conditions: 10000 nM, read-out: Percent Control
CASK = CASK (Homo sapiens (Human), UniProt O14936); conditions: 10000 nM, read-out: Percent Control
CLK1 = CLK1 (Homo sapiens (Human), UniProt P49759); conditions: CLK1, 10000 nM; read-out: Percent Control
CSNK1A1 = CSNK1A1 (Homo sapiens (Human), UniProt P48729); conditions: CSNK1A1, 10000 nM; read-out: Percent Control
CSNK1G2 = CSNK1G2 (Homo sapiens (Human), UniProt P78368); conditions: CSNK1G2, 10000 nM; read-out: Percent Control
DAPK1 = DAPK1 (Homo sapiens (Human), UniProt P53355); conditions: DAPK1, 10000 nM; read-out: Percent Control
DAPK3 = DAPK3 (Homo sapiens (Human), UniProt O43293); conditions: DAPK3, 10000 nM; read-out: Percent Control
DRAK1 = DRAK1 (Homo sapiens (Human), UniProt Q9UEE5); conditions: DRAK1, 10000 nM; read-out: Percent Control
EGFR(L861Q) = EGFR(L861Q) (Homo sapiens (Human), UniProt P00533, L861Q); conditions: 10000 nM, read-out: Percent Control
FGFR3(G697C) = FGFR3(G697C) (Homo sapiens (Human), UniProt P22607, G697C); conditions: 10000 nM, read-out: Percent Control
FLT3(ITD, F691L) = conditions: 10000 nM
FLT4 = FLT4 (Homo sapiens (Human), UniProt P35916); conditions: FLT4, 10000 nM; read-out: Percent Control
HIPK4 = HIPK4 (Homo sapiens (Human), UniProt Q8NE63); conditions: HIPK4, 10000 nM; read-out: Percent Control
IRAK1 = IRAK1 (Homo sapiens (Human), UniProt P51617); conditions: read-out: Percent Control
KIT(A829P) = KIT(A829P) (Homo sapiens (Human), UniProt P10721, A829P); conditions: 10000 nM, read-out: Percent Control
LIMK1 = LIMK1 (Homo sapiens (Human), UniProt P53667); conditions: LIMK1, 10000 nM; read-out: Percent Control
MELK = MELK (Homo sapiens (Human), UniProt Q14680); conditions: 10000 nM, read-out: Percent Control
NEK4 = NEK4 (Homo sapiens (Human), UniProt P51957); conditions: NEK4, 10000 nM; read-out: Percent Control
PFPK5(P. falciparum) = PFPK5(P. falciparum) (Plasmodium falciparum (isolate 3D7), UniProt P61075); conditions: 10000 nM, read-out: Percent Control
PIK3C2B = PIK3C2B (Homo sapiens (Human), UniProt O00750); conditions: 10000 nM, read-out: Percent Control
PIK3C2G = PIK3C2G (Homo sapiens (Human), UniProt O75747); conditions: 10000 nM, read-out: Percent Control
PIK3CA = PIK3CA (Homo sapiens (Human), UniProt P42336); conditions: 10000 nM, read-out: Percent Control
PIP5K1A = PIP5K1A (Homo sapiens (Human), UniProt Q99755); conditions: 10000 nM, read-out: Percent Control
PIP5K2C = PIP5K2C (Homo sapiens (Human), UniProt Q8TBX8); conditions: 10000 nM, read-out: Percent Control
PKAC-beta = PKAC-beta (Homo sapiens (Human), UniProt P22694); conditions: 10000 nM, read-out: Percent Control
PLK1 = PLK1 (Homo sapiens (Human), UniProt P53350); conditions: PLK1, 10000 nM; read-out: Percent Control
PLK2 = PLK2 (Homo sapiens (Human), UniProt Q9NYY3); conditions: PLK2, 10000 nM; read-out: Percent Control
PRKR = PRKR (Homo sapiens (Human), UniProt P19525); conditions: 10000 nM, read-out: Percent Control
PRKX = PRKX (Homo sapiens (Human), UniProt P51817); conditions: 10000 nM, read-out: Percent Control
RET(V804L) = RET(V804L) (Homo sapiens (Human), UniProt P07949, V804L); conditions: 10000 nM, read-out: Percent Control
RIPK1 = RIPK1 (Homo sapiens (Human), UniProt Q13546); conditions: RIPK1, 10000 nM; read-out: Percent Control
RIPK5 = RIPK5 (Homo sapiens (Human), UniProt Q6XUX3); conditions: RIPK5, 10000 nM; read-out: Percent Control
TRKA = TRKA (Homo sapiens (Human), UniProt P04629); conditions: 10000 nM, read-out: Percent Control
TRKC = TRKC (Homo sapiens (Human), UniProt Q16288); conditions: 10000 nM, read-out: Percent Control

Chain of RIPK1 (Q13546 whole entry): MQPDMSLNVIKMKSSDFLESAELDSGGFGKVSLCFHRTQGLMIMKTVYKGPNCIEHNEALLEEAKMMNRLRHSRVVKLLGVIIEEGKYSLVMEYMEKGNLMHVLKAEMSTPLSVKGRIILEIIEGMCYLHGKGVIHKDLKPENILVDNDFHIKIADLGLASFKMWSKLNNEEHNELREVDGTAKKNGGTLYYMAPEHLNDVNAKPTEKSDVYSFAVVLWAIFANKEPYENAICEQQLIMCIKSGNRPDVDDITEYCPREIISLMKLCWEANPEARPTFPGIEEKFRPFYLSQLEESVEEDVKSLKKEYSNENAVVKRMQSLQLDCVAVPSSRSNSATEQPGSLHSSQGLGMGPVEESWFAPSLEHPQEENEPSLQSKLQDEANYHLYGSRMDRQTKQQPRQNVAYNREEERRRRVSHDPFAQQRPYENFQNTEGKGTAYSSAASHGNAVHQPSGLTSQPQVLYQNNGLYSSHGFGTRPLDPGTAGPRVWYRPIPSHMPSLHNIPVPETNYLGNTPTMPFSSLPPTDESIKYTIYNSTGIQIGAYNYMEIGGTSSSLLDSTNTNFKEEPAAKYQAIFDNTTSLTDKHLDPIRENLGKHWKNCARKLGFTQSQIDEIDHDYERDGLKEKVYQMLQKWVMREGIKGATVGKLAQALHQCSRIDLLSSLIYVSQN
Chain of PIP5K1A (Q99755 whole entry): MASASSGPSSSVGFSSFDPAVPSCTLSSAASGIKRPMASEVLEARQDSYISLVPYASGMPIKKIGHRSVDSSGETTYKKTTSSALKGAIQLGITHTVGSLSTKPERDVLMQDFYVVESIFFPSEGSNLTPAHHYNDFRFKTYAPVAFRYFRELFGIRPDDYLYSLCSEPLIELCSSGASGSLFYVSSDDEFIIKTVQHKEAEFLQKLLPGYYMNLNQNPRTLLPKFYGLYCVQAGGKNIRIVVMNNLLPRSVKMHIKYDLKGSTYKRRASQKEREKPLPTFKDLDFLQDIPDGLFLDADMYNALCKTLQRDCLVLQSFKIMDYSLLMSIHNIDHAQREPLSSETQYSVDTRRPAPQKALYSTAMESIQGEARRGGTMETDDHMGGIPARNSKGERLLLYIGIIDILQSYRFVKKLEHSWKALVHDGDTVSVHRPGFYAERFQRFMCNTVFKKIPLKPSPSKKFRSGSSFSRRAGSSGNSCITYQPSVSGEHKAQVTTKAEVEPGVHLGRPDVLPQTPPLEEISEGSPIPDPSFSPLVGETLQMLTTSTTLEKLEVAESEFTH
Chain of PIP5K2C (Q8TBX8 whole entry): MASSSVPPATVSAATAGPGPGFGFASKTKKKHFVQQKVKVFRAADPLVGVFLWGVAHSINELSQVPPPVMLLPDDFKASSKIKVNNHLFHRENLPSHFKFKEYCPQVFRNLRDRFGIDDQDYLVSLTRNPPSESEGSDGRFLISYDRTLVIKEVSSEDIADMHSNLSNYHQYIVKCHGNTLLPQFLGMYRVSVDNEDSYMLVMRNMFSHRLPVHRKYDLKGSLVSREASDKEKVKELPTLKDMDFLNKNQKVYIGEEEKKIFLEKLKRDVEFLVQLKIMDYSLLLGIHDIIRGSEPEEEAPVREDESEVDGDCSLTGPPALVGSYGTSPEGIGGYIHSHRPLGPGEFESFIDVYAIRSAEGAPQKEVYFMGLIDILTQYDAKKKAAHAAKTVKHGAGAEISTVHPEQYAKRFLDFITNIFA
Chain of NEK4 (P51957 whole entry): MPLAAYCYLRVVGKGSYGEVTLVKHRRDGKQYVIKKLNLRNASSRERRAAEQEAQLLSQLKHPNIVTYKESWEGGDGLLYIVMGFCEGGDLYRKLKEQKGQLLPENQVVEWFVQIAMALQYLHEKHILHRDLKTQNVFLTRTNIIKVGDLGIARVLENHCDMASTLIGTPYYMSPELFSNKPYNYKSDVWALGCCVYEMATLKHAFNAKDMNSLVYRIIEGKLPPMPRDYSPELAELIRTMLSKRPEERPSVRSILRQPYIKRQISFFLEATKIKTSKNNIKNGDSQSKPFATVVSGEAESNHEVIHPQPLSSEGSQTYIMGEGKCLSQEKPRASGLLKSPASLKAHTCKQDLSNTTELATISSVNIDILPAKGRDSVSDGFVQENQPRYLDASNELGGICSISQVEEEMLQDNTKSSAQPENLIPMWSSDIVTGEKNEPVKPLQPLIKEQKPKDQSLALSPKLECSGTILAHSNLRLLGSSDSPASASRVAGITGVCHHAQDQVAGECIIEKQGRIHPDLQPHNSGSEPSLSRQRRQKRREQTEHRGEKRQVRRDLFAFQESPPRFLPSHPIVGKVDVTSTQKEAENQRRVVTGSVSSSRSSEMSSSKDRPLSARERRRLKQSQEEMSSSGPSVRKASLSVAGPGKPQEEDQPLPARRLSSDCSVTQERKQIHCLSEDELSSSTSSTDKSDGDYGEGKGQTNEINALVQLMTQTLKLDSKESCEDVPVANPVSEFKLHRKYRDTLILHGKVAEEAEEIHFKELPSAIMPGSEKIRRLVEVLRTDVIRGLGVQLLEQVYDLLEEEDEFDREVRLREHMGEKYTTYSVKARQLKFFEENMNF
Chain of CSNK1G2 (P78368 whole entry): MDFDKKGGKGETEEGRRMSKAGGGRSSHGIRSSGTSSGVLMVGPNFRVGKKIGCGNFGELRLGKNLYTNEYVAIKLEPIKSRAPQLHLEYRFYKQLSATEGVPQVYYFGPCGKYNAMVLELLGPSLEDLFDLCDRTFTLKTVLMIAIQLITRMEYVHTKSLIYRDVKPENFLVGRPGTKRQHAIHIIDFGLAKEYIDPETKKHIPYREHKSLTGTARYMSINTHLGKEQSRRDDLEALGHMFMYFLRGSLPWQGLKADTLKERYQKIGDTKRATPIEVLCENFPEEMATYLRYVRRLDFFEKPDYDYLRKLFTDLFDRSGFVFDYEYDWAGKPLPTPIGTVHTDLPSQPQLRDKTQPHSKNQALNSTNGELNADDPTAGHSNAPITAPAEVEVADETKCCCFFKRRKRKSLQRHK
Chain of RET(V804L) (P07949 29-1114 V804L): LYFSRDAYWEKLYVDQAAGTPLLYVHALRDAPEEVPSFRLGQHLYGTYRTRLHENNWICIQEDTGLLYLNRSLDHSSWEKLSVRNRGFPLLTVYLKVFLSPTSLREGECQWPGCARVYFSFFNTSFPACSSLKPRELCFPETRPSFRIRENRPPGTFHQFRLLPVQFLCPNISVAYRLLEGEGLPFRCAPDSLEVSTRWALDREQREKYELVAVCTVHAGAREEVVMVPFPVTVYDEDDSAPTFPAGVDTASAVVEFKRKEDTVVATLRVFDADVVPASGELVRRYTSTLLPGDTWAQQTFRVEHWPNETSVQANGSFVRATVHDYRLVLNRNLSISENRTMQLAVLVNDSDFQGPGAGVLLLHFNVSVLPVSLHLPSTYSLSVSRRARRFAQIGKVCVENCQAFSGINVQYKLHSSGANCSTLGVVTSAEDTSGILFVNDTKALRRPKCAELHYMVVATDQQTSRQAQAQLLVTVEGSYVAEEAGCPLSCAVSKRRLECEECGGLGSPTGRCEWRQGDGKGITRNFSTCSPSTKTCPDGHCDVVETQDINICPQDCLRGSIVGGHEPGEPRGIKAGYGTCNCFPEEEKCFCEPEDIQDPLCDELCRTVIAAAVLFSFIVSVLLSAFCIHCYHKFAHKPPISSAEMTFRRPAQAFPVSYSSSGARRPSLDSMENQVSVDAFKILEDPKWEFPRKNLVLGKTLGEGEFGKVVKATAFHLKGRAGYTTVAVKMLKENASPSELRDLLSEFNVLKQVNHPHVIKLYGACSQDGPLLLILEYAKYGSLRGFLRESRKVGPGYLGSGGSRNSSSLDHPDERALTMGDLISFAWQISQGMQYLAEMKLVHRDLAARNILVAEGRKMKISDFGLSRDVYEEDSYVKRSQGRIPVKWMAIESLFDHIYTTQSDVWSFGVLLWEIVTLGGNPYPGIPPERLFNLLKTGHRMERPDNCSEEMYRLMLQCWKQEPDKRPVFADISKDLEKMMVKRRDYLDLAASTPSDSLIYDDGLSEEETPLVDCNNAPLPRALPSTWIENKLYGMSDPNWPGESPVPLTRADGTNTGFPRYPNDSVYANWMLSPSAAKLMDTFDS
Chain of DAPK3 (O43293 whole entry): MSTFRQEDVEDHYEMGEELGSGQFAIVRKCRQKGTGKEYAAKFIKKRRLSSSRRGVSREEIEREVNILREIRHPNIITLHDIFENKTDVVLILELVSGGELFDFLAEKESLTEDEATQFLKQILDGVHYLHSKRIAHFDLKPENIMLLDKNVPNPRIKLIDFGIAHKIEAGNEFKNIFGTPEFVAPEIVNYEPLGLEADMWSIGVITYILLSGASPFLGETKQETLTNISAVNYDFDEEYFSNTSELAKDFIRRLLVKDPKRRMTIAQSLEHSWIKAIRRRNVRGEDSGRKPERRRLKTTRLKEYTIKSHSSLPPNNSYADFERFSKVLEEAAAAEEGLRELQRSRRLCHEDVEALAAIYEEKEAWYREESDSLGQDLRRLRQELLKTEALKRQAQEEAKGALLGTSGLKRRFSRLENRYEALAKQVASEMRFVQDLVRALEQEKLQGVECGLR
Chain of DRAK1 (Q9UEE5 whole entry): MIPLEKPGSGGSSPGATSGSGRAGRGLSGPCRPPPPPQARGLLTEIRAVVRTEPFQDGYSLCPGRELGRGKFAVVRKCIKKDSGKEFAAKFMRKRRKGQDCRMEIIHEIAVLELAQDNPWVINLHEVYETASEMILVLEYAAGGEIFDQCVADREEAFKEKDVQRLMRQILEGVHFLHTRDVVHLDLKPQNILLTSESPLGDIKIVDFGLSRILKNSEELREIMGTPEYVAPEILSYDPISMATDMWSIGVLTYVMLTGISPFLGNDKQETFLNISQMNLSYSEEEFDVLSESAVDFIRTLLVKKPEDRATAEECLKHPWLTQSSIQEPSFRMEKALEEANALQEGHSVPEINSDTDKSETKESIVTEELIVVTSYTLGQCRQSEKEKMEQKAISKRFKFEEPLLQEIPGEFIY

Compound	remaining binding at 10 µM (ABL1-phosphorylated) [%]	remaining binding at 10 µM (ALK(C1156Y)) [%]	remaining binding at 10 µM (AURKA) [%]	remaining binding at 10 µM (CASK) [%]	remaining binding at 10 µM (CLK1) [%]	remaining binding at 10 µM (CSNK1A1) [%]	remaining binding at 10 µM (CSNK1G2) [%]	remaining binding at 10 µM (DAPK1) [%]	remaining binding at 10 µM (DAPK3) [%]	remaining binding at 10 µM (DRAK1) [%]	remaining binding at 10 µM (EGFR(L861Q)) [%]	remaining binding at 10 µM (FGFR3(G697C)) [%]	Percent Control (FLT3(ITD, F691L)) [%]	remaining binding at 10 µM (FLT4) [%]	remaining binding at 10 µM (HIPK4) [%]	remaining binding at 10 µM (KIT(A829P)) [%]	remaining binding at 10 µM (LIMK1) [%]	remaining binding at 10 µM (MELK) [%]	remaining binding at 10 µM (NEK4) [%]	remaining binding at 10 µM (PFPK5(P. falciparum)) [%]	other results
COc1cc(N2CCC(N3CCN(C)CC3)CC2)ccc1Nc1ncc2c(n1)N(C)c1sc(C)nc1C(=O)N2 [Compound 3, 6-((2-methoxy-4-(4-(4-methylpiperazin-1-yl)piperidin-1-yl)phenyl)amino)-2,4-dimethyl-4,9-dihydro-10H-pyrimido[5,4-b]thiazolo[5,4-e][1,4]diazepin-10-one]	17	100	92	83	90	62	81	72	62	95	38	78	100	92	82	47	96	99	100	100	remaining binding at 10 µM (IRAK1; IRAK1, 10000 nM): 100%; remaining binding at 10 µM (PIK3C2B): 86%; remaining binding at 10 µM (PIK3C2G): 69%; remaining binding at 10 µM (PIK3CA): 100%; remaining binding at 10 µM (PIP5K1A): 100%; remaining binding at 10 µM (PIP5K2C): 86%; remaining binding at 10 µM (PKAC-beta): 82%; remaining binding at 10 µM (PLK1): 100%; remaining binding at 10 µM (PLK2): 100%; remaining binding at 10 µM (PRKR): 100%; remaining binding at 10 µM (PRKX): 96%; remaining binding at 10 µM (RET(V804L)): 95%; remaining binding at 10 µM (RIPK1): 100%; remaining binding at 10 µM (RIPK5): 100%; remaining binding at 10 µM (TRKA): 100%; remaining binding at 10 µM (TRKC): 100%
COc1cc(N2CCC(N3CCN(C)CC3)CC2)ccc1Nc1ncc2c(n1)N(C)c1sc(C)nc1C(=O)N2C [Compound 5, 6-((2-methoxy-4-(4-(4-methylpiperazin-1-yl)piperidin-1-yl)phenyl)amino)-2,4,9-trimethyl-4,9-dihydro-10H-pyrimido[5,4-b]thiazolo[5,4-e][1,4]diazepin-10-one]	79	89	78	100	100	97	80	84	97	100	100	100	93	100	100	100	95	88	100	97	remaining binding at 10 µM (IRAK1; IRAKI, 10000 nM): 100%; remaining binding at 10 µM (PIK3C2B): 100%; remaining binding at 10 µM (PIK3C2G): 100%; remaining binding at 10 µM (PIK3CA): 100%; remaining binding at 10 µM (PIP5K1A): 100%; remaining binding at 10 µM (PIP5K2C): 75%; remaining binding at 10 µM (PKAC-beta): 100%; remaining binding at 10 µM (PLK1): 0.7%; remaining binding at 10 µM (PLK2): 62%; remaining binding at 10 µM (PRKR): 65%; remaining binding at 10 µM (PRKX): 99%; remaining binding at 10 µM (RET(V804L)): 93%; remaining binding at 10 µM (RIPK1): 96%; remaining binding at 10 µM (RIPK5): 60%; remaining binding at 10 µM (TRKA): 100%; remaining binding at 10 µM (TRKC): 100%
